Measured values reported in ChEMBL document CHEMBL4364276, “Discovery of 4-phenyl-2H-benzo[b][1,4]oxazin-3(4H)-one derivatives as potent and orally active PI3K/mTOR dual inhibitors” (Eur J Med Chem, 2019).
pIC50: −log10 of the molar value.

Assays:
PI3K p110 beta/p85 alpha = PI3K p110 beta/p85 alpha (Homo sapiens, UniProt P42338); assay: Inhibition of recombinant human full length N-terminal GST-tagged PI3Kbeta (1 to 1070 residues)/PIK3R1 (1 to 724 residues) expressed in baculovirus expression system using PIP2 as substrate incubated for 2 hrs by ADP-Glo assay
[1] = Inhibition of PI3K/Akt/mTOR signaling in human HeLa cells assessed as reduction in AKT 473 phosphorylation incubated for 24 hrs by Western blot analysis; type: cell-based
A549 = assay: Antitumor activity against human A549 cells xenografted in BALB/c nude mouse assessed as tumor growth inhibition at 20 mg/kg, ig administered for 30 days measured every 3 days during compound dosing relative to control; type: functional; details: A549, po, read-out: TGI
[2] = biological target: TGF-beta receptor type-1 (Homo sapiens) (UniProt P36897); assay: Inhibition of human ALK5 at 100 nM using casein as substrate by [gamma-33P]-ATP assay
[3] = biological target: Calcium/calmodulin-dependent protein kinase type IV (Homo sapiens) (UniProt Q16566); assay: Inhibition of human CAMK4 at 100 nM using KKLNRTLSFAEPG as substrate by [gamma-33P]-ATP assay
[4] = biological target: Cyclin-C/Cyclin-dependent kinase 19 (Homo sapiens) (UniProt Q9BWU1+P24863); assay: Inhibition of human CDK19/cyclin-C at 100 nM using RB protein as substrate by [gamma-33P]-ATP assay; type: protein-complex assay
[5] = biological target: Serine/threonine-protein kinase 17A (Homo sapiens) (UniProt Q9UEE5); assay: Inhibition of human DRAK1 at 100 nM using KKLNRTLSFAEPG as substrate by [gamma-33P]-ATP assay
[6] = biological target: Ephrin type-A receptor 2 (Homo sapiens) (UniProt P29317); assay: Inhibition of human EPHA2 at 100 nM using poly[Glu:Tyr] (4:1) as substrate by [gamma-33P]-ATP assay
[7] = biological target: Ephrin type-B receptor 3 (Homo sapiens) (UniProt P54753); assay: Inhibition of human EPHB3 at 100 nM using poly[Glu:Tyr] (4:1) as substrate by [gamma-33P]-ATP assay
[8] = biological target: Serine/threonine-protein kinase/endoribonuclease IRE2 (Homo sapiens) (UniProt Q76MJ5); assay: Inhibition of human ERN2 at 100 nM using MBP as substrate by [gamma-33P]-ATP assay
[9] = biological target: Fibroblast growth factor receptor 4 (Homo sapiens) (UniProt P22455); assay: Inhibition of human FGFR4 at 100 nM using poly[Glu:Tyr] (4:1) as substrate by [gamma-33P]-ATP assay
[10] = biological target: Mitogen-activated protein kinase kinase kinase kinase 2 (Homo sapiens) (UniProt Q12851); assay: Inhibition of human GCK at 100 nM using MBP as substrate by [gamma-33P]-ATP assay
[11] = biological target: Beta-adrenergic receptor kinase 1 (Homo sapiens) (UniProt P25098); assay: Inhibition of human GRK2 at 100 nM using casein as substrate by [gamma-33P]-ATP assay
[12] = biological target: Mitogen-activated protein kinase 10 (Homo sapiens) (UniProt P53779); assay: Inhibition of human JNK3 at 100 nM using ATF2 as substrate by [gamma-33P]-ATP assay
[13] = biological target: LIM domain kinase 1 (Homo sapiens) (UniProt P53667); assay: Inhibition of human LIMK1 at 100 nM using cofilin as substrate by [gamma-33P]-ATP assay
[14] = biological target: Tyrosine-protein kinase Lyn (Homo sapiens) (UniProt P07948); assay: Inhibition of human LYN-B at 100 nM using poly[Glu:Tyr] (4:1) as substrate by [gamma-33P]-ATP assay
[15] = biological target: MAP kinase-activated protein kinase 5 (Homo sapiens) (UniProt Q8IW41); assay: Inhibition of human MAPKAPK5 at 100 nM using KKLNRTLSVA as substrate by [gamma-33P]-ATP assay
[16] = biological target: MAP/microtubule affinity-regulating kinase 3 (Homo sapiens) (UniProt P27448); assay: Inhibition of human MARK3 at 100 nM using KKKVSRSGLYRSPSMPENLNRPR as substrate by [gamma-33P]-ATP assay
[17] = biological target: Myosin light chain kinase family member 4 (Homo sapiens) (UniProt Q86YV6); assay: Inhibition of human MYLK4 at 100 nM using KKRPQRRYSNVF as substrate by [gamma-33P]-ATP assay
[18] = biological target: Serine/threonine-protein kinase PAK 3 (Homo sapiens) (UniProt O75914); assay: Inhibition of human PAK3 at 100 nM using RRRLSFAEPG as substrate by [gamma-33P]-ATP assay
[19] = biological target: PAS domain-containing serine/threonine-protein kinase (Homo sapiens) (UniProt Q96RG2); assay: Inhibition of human PASK at 100 nM using KKLNRTLSFAEPG as substrate by [gamma-33P]-ATP assay
[20] = biological target: cGMP-dependent protein kinase 2 (Homo sapiens) (UniProt Q13237); assay: Inhibition of human PKG2 at 100 nM using LRRASLG as substrate by [gamma-33P]-ATP assay
[21] = biological target: Macrophage-stimulating protein receptor (Homo sapiens) (UniProt Q04912); assay: Inhibition of human RON at 100 nM using KKSRGDYMTMQIG as substrate by [gamma-33P]-ATP assay
[22] = biological target: SRSF protein kinase 1 (Homo sapiens) (UniProt Q96SB4); assay: Inhibition of human SRPK1 at 100 nM using GRSRSRSRSR as substrate by [gamma-33P]-ATP assay
[23] = biological target: Tyrosine-protein kinase SYK (Homo sapiens) (UniProt P43405); assay: Inhibition of human SYK at 100 nM using poly[Glu:Tyr] (4:1) as substrate by [gamma-33P]-ATP assay
[24] = biological target: BDNF/NT-3 growth factors receptor (Homo sapiens) (UniProt Q16620); assay: Inhibition of human TRKB at 100 nM using poly[Glu:Tyr] (4:1) as substrate by [gamma-33P]-ATP assay
[25] = biological target: Serine/threonine-protein kinase WNK1 (Homo sapiens) (UniProt Q9H4A3); assay: Inhibition of human WNK1 at 100 nM using MBP as substrate by [gamma-33P]-ATP assay
[26] = biological target: Transient receptor potential cation channel subfamily M member 7 (Homo sapiens) (UniProt Q96QT4); assay: Inhibition of human TRPM7 at 100 nM using MBP as substrate by [gamma-33P]-ATP assay
Chain of Transient receptor potential cation channel subfamily M member 7 (Homo sapiens) (Q96QT4 whole entry): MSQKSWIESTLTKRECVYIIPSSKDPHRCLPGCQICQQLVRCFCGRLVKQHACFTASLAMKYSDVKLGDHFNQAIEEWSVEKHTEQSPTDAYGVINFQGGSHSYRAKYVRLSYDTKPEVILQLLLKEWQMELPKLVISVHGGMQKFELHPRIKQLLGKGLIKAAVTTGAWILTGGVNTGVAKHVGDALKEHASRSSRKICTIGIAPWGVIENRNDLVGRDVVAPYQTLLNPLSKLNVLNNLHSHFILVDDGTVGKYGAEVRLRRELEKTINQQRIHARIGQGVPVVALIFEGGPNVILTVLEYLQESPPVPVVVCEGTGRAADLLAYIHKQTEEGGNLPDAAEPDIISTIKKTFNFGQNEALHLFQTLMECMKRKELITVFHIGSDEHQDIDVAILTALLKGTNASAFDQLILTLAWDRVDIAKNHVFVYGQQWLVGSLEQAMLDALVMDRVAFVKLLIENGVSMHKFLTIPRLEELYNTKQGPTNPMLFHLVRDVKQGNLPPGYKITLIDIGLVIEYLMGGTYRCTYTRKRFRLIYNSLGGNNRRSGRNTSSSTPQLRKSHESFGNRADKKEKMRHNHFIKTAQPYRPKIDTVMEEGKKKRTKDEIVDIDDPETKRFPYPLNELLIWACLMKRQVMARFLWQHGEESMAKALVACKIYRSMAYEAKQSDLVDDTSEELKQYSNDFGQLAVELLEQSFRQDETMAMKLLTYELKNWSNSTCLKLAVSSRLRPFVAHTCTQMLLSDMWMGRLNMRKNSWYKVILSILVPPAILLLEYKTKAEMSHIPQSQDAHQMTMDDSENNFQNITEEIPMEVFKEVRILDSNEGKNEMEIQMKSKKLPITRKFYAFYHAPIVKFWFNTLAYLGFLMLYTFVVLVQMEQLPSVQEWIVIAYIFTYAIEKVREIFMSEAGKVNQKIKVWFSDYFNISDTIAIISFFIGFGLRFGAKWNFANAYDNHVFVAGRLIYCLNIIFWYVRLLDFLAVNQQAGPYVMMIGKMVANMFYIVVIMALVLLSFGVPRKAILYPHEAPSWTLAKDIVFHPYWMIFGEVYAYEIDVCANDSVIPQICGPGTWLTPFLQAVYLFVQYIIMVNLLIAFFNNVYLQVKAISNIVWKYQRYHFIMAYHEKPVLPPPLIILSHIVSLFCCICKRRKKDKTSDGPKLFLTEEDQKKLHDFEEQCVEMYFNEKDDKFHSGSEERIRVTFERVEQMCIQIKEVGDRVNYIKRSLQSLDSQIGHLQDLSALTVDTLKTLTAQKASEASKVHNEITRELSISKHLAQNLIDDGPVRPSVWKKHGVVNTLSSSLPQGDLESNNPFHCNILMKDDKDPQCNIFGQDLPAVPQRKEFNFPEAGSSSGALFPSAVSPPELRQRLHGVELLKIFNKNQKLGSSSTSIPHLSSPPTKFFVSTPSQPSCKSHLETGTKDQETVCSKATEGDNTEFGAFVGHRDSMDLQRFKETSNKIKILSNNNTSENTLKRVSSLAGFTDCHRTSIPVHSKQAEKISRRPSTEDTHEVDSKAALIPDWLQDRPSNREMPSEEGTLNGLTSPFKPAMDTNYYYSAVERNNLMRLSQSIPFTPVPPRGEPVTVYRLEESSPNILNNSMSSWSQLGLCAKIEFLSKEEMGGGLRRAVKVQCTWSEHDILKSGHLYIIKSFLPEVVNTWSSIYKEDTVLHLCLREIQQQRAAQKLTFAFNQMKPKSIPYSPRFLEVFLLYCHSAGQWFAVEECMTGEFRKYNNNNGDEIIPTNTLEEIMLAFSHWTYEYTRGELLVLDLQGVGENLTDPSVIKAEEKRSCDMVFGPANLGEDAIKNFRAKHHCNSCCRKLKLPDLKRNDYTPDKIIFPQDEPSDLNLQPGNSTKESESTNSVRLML

Chain of BDNF/NT-3 growth factors receptor (Homo sapiens) (Q16620 32-822 limits assumed): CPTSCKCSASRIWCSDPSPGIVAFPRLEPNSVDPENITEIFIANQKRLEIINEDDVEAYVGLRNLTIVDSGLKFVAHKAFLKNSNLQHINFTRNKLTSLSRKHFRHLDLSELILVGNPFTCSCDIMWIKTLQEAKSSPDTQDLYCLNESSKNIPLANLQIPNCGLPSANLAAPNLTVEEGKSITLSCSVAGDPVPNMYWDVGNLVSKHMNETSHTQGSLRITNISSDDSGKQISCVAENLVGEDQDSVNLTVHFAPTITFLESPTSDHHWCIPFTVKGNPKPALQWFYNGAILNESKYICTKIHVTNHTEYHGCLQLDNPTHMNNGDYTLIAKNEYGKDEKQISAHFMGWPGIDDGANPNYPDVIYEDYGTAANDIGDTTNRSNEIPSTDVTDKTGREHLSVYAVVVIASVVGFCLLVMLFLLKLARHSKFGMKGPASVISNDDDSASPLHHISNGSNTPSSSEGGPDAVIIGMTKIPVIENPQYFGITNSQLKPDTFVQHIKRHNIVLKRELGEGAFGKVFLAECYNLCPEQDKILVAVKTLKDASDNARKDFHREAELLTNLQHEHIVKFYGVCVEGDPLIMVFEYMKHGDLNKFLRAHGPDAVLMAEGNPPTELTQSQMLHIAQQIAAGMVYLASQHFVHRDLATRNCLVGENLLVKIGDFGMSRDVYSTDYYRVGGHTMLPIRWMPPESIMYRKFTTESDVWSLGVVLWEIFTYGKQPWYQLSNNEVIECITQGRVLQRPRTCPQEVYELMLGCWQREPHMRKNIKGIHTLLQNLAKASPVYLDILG
Chain of Ephrin type-A receptor 2 (Homo sapiens) (P29317 whole entry): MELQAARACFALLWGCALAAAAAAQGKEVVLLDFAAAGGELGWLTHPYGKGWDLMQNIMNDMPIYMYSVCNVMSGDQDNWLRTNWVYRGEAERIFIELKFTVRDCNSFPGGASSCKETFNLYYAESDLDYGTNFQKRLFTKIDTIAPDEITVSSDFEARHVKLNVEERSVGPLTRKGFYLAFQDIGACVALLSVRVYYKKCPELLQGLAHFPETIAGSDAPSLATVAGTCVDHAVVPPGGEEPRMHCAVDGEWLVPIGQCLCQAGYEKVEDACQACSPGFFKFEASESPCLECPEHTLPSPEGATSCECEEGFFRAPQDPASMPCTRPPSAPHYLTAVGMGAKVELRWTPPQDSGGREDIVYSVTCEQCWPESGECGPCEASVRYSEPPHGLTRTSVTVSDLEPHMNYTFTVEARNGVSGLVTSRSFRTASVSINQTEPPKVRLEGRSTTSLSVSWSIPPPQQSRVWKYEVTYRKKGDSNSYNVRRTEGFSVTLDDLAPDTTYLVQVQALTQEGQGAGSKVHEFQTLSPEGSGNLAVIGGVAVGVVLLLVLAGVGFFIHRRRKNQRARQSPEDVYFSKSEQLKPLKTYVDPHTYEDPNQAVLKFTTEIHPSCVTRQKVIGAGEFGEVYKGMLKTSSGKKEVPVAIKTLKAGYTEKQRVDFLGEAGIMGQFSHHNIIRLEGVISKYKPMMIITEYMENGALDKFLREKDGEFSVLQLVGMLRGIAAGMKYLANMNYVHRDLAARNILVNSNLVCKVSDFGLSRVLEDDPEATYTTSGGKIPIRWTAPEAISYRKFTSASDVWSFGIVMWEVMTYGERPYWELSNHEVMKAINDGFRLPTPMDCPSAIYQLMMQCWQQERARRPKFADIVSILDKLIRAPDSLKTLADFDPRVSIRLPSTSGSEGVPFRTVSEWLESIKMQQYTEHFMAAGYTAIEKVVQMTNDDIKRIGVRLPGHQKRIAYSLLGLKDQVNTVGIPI
Chain of Ephrin type-B receptor 3 (Homo sapiens) (P54753 whole entry): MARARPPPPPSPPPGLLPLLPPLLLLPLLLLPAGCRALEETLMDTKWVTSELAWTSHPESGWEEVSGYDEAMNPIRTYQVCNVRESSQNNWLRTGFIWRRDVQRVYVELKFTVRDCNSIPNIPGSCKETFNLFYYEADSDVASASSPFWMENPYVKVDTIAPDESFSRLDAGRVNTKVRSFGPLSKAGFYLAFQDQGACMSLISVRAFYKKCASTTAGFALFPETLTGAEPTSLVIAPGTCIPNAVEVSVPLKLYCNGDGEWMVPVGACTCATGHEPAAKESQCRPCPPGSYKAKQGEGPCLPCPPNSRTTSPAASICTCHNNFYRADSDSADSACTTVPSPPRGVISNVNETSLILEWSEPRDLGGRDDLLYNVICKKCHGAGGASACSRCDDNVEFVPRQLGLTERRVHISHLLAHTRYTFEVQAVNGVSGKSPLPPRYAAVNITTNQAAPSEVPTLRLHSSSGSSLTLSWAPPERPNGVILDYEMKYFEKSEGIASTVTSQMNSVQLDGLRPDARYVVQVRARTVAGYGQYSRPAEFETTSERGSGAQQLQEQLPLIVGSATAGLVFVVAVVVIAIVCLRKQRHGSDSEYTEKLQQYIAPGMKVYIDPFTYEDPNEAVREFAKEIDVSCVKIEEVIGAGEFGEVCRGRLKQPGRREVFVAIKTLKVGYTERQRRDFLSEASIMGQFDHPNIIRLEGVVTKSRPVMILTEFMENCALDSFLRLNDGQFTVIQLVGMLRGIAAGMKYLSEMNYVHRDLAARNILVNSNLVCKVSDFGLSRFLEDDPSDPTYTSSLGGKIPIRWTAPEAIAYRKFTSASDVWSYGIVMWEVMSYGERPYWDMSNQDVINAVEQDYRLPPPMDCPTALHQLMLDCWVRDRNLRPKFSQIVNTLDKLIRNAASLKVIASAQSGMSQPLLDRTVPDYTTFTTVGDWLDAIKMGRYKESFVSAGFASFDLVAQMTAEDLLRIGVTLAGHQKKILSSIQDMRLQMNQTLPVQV
Chain of Myosin light chain kinase family member 4 (Homo sapiens) (Q86YV6 whole entry): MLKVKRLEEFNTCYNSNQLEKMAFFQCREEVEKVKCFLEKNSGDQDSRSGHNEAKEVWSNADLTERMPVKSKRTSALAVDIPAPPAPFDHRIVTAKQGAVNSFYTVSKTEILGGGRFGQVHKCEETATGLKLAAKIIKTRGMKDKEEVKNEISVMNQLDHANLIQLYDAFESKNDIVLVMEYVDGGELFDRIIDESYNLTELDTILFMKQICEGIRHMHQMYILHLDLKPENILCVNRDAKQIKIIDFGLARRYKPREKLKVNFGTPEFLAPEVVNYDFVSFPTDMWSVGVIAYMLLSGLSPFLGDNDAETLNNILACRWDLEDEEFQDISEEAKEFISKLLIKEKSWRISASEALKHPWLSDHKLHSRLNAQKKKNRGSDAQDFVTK

Q: With `COc1ccc(N2C(=O)COc3ccc(-c4cnc(OC)c(NS(=O)(=O)c5ccc(F)cc5)c4)cc32)cc1` as the compound, how does the pIC50 (PI3K p110 beta/p85 alpha) read?
A: 7.02

Q: What about the inhibition [1] of the same compound?
A: Dose-dependent effect

Q: What about the inhibition in vivo at 20 mg/kg (A549) of the same compound?
A: 57.8%

Q: And the inhibition [2]?
A: 0.84%

Q: What about the inhibition [3] of the same compound?
A: 12%

Q: And the inhibition [4]?
A: 4.5%

Q: What about the inhibition [5] of the same compound?
A: 0.44%

Q: What about the inhibition [6] of the same compound?
A: 19.2%

Q: What about the inhibition [7] of the same compound?
A: -1.65%

Q: And the inhibition [8]?
A: -2.98%

Q: What about the inhibition [9] of the same compound?
A: 6.2%

Q: What about the inhibition [10] of the same compound?
A: 1.33%

Q: What about the inhibition [11] of the same compound?
A: 0.16%

Q: And the inhibition [12]?
A: -6.25%

Q: And the inhibition [13]?
A: -3.87%

Q: And the inhibition [14]?
A: 4.9%

Q: What about the inhibition [15] of the same compound?
A: 5.14%

Q: And the inhibition [16]?
A: -2.27%

Q: What about the inhibition [17] of the same compound?
A: 7.06%

Q: And the inhibition [18]?
A: 4.51%

Q: And the inhibition [19]?
A: -2.91%

Q: What about the inhibition [20] of the same compound?
A: 1.95%

Q: And the inhibition [21]?
A: -0.5%

Q: And the inhibition [22]?
A: 1.44%

Q: And the inhibition [23]?
A: 3.43%

Q: And the inhibition [24]?
A: -0.11%

Q: And the inhibition [25]?
A: 13.9%

Q: And the inhibition [26]?
A: 1.61%
